Laboratory results reported in patent US4593036A, “(-)-Trans-4-(4-fluorophenyl)-3-[(4-methoxyphenoxy)meth yl]-1-methylpiperidine useful as 5-HT potentiator” (priority 1984, dated 1986).

Assays:
mice = test: in vivo; settings: for FG 8033 is better by: T.I. % / FG 8033 is better by: T.I. Factor: FG 8033 compared with the listed compound, mice s.c.
Protocol: (§1) (J. Buus Lassen, European Journal of Pharmacology 47, 351-358 (1978)). See also Squires in Acta Pharmacol. et Toxicol, 1972, 31 Suppl. 1,35 for a description of a further procedure for measurement of the same 5-HT uptake-inhibitory phenomenon.
(§2) II. ACUTE TOXICITY IN MICE
(§3) A variation of the procedure of J. Buus Lassen, et al. in European Journal of Pharmacology 32, 108-115 (1975) is employed. The test drug is administered s.c. in increasing doses to mice, four (4) animals at each dose level.
(§4) Results are expressed as LD50 = . . . mg/kg s.c.

in vivo = settings: mouse, in vivo, sc
Protocol: as §1, §2, §3, §4

5-HT uptake = test: Test 173: potentiation of 5-HTP (5-hydroxytryptophane) induced hypermotility in mice (inhibition of 5HT uptake, or 5HT potentiation, test); type: in vivo, mice (female, NMRI strain); settings: for FG 8033 is better by: 5-HT Potentiation % / FG 8033 is better by: 5-HT Potentiation Factor: FG 8033 compared with the listed compound, mice s.c.; for ED50: Mus musculus, sc, read-out: Test 173 (dose increasing the activity to double the activity found with controls receiving 5-HTP alone; ED50), s.c., 5-HTP 150 mg/kg i.p., motility 45-75 min after 5-HTP, water-soluble salt
Text: I. POTENTIATION OF 5-HTP (5-HYDROXYTRYPTOPHANE) INDUCED HYPERMOTILITY IN MICE
This behavior is characterized by continuous jerky locomotion, head movements from side to side, abduction of the hind limbs, tremor, and lordosis.
Measurement of the motility after administration of test drugs to 5-HTP-pretreated mice is therefore used as a test for 5-HT-potentiation, which most probably proceeds through an inhibition of 5-HT uptake.
Female mice of the NMRI strain weighing 20-22 g are used. The controls receive 5-HTP 150 mg/kg (15 ml/kg) i.p. (i.p.=intraperitoneally) and thirty (30) minutes later physiological saline (20 ml/kg) s.c. (s.c.=subcutaneously). The motility is measured by an Animex™ motimeter 45-75 minutes after 5-HTP administration. The test animals received test substance s.c. (20 ml/kg) instead of physiological saline. Five groups of two (2) mice are used for control and per dose of each test drug. the test substance is dosed according to the dose scale 1, 1.6, 2.5, 4, 6.3, and 10 mg/kg etc.
The activity of the test animals is compared to the activity of controls. The best straight line is fitted through the points in a coordinate system (abscissa log dose, ordinate log activity). […] The activity of controls is investigated in thirty (30) groups of two (2) mice.

[1] = versus (+) trans isomer FG 8032
[2] = versus (+), trans des-p-fluoro compound FG 4963
[3] = versus (-), trans des-p-fluoro compound FG 4962

| SMILES | FG 8033 is better by: T.I. % (mice) [%] | FG 8033 is better by: T.I. Factor (mice) | FG 8033 is better by: 5-HT Potentiation % (5-HT uptake) [%] | FG 8033 is better by: 5-HT Potentiation Factor (5-HT uptake) | ED50 (5-HT uptake; mice) [mg/kg] | also measured |
| --- | --- | --- | --- | --- | --- | --- |
| COc1ccc(OC[C@@H]2CNCC[C@H]2c2ccccc2)cc1 (single isomer, unassigned) [FG 7006, reference compound] | 4444 | 44.44 | 4000 | 40 | 20 | Test 001 acute toxicity LD50 (mice; mice, s.c., lethality at 24 hours, water-soluble salt): 350 mg/kg; selectivity ratio (in vivo): 18 |
| CN1CC[C@@H](c2ccc(F)cc2)[C@H](COc2ccc3c(c2)OCO3)C1 (single isomer, unassigned) [FG 7043, reference compound] |  |  |  |  | 4 |  |
| COc1ccc(OC[C@@H]2CN(C)CC[C@H]2c2ccccc2)cc1 (single isomer, unassigned) [FG 4962, reference compound] |  |  |  |  | 3.8 |  |
| CC(=O)O.COc1ccc(OC[C@@H]2CNCC[C@H]2c2ccc(F)cc2)cc1 (single isomer, unassigned) [FG 8035, (+)-trans-4-(4-fluorophenyl)-3-((4-methoxyphenoxy)methyl)-piperidine acetate] | 3333 | 33.33 | 4400 | 44 | 22 |  |
| COc1ccc(OC[C@@H]2CN(C)CC[C@H]2c2ccc(F)cc2)cc1.Cl (single isomer, unassigned) [FG 8032, (+)-trans-4-(4-fluorophenyl)-3-[(4-methoxyphenoxy)methyl]-1-methylpiperidine hydrochloride] |  |  |  |  | 23 |  |
| COc1ccc(OC[C@H]2CNCC[C@@H]2c2ccccc2)cc1 (single isomer, unassigned) [FG 4996, reference compound] | 5714 | 57.14 | 1800 | 18 | 9 |  |
| COc1ccc(OC[C@@H]2CN(C)CC[C@H]2c2ccc(F)cc2)cc1 (relative stereo) [FG 98-I] | 174 | 1.74 | 260 | 2.6 | 1.3 |  |
| COc1ccc(OC[C@H]2CN(C)CC[C@@H]2c2ccccc2)cc1 (single isomer, unassigned) [FG 4963, reference compound] |  |  |  |  | 2.8 |  |
| COc1ccc(OC[C@@H]2CN(C)CC[C@H]2c2ccccc2)cc1 (relative stereo) [FG 4932, reference compound] |  |  |  |  | 7.7 |  |
| COc1ccc(OC[C@@H]2CNCC[C@H]2c2ccc(F)cc2)cc1 (single isomer, unassigned) [FG 7080, (-)-trans-4-(4-fluorophenyl)-3-[(4-methoxyphenoxy)-methyl]-piperidine] |  |  |  |  | 1 |  |
| COc1ccc(OC[C@@H]2CN(C)CC[C@H]2c2ccc(F)cc2)cc1 (single isomer, unassigned) [FG 8033, (-)-trans-4-(4-fluorophenyl)-3-[(4-methoxyphenoxy)-methyl]-1-methyl-piperidine] |  |  |  |  | 0.5 | Therapeutic Index (in words) (mice; calculated as LD50/ED50): even more remarkably and unpredictably superior to those most structurally closely-related compounds when considering its Therapeutic Index; Therapeutic Index relative to FG 8032 (mice; [1]): more than 47 times; Therapeutic Index relative to FG 8032, percent (mice; [1]): > 4700%; superiority as to Therapeutic Index over FG 4963, factor (mice; [2]): greater than 5.97 times; superiority as to Therapeutic Index over FG 4963, percent (mice; [2]): > 597%; Therapeutic Index relative to FG 4962 (mice; [3]): more than 15 times; Therapeutic Index relative to FG 4962, percent (mice; [3]): > 1500%; degree of activity in test for potentiation of 5-hydroxytryptophane-induced hypermotility (in words) (5-HT uptake; mice): remarkably and unpredictably superior in its 5-HT potentiation to the most structurally closely-related compounds evaluated; 5-HT potentiation activity relative to FG 8032 (5-HT uptake; [1]): 46 times; 5-HT potentiation activity relative to FG 8032, percent (5-HT uptake; [1]): 4600%; superiority as to 5-HT potentiation over FG 4963, factor (5-HT uptake; [2]): 5.6; superiority as to 5-HT potentiation over FG 4963, percent (5-HT uptake; [2]): 560%; 5-HT potentiation activity relative to FG 4962 (5-HT uptake; [3]): 7.6 times; 5-HT potentiation activity relative to FG 4962, percent (5-HT uptake; [3]): 760% |
